In patent EP0195316A1, “Quinolonecarboxylic acid derivatives” (KYORIN PHARMACEUTICAL CO., LTD., priority 1985, dated 1986):
In brackets after ≈: the same amount, converted by molar mass. Read-outs that look alike come from different tables or passages of the source.

Experiments:
C. perfringens KYA 13123 = assay: microbe, parasite or virus in culture; format: cell-based; details: Clostridium perfringens, KYA13123
Campylobacter jejuni = assay: MIC, in vitro antibacterial activity (clinical isolates); format: cell-based; details: No. of strains 20
E. cloacae IID 977 = format: cell-based
B. fragilis 25285 = assay: MIC, in vitro antibacterial activity (standard strains); format: cell-based; details: Bacteroides fragilis; B. fragilis 25285, 10^6 cells/ml, Gram -
[1] = test system: S. aureus IID 670 (Terajima); assay: as above; format: cell-based; details: Staphylococcus aureus, IID670, 10^6 cells/ml, Gram +
B. fragilis 8503 = assay: as above; format: cell-based; details: Bacteroides fragilis; B. fragilis 8503, 10^6 cells/ml, Gram -
[2] = test system: Citrobacter freundii IID 976; assay: as above; format: cell-based; details: IID976
E. faecalis = assay: MIC, in vitro antibacterial activity (clinical isolates); format: cell-based; details: Enterococcus faecalis, No. of strains 5
N. meningitidis = assay: as above; format: cell-based; details: Neisseria meningitidis, No. of strains 3
[3] = test system: Acinetobacter anitratus IID 876; assay: MIC, in vitro antibacterial activity (standard strains); format: cell-based; details: Acinetobacter calcoaceticus, IID876; Acinetobacter anitratus IID 876, 10^6 cells/ml, Gram -
S. marcescens IID 618 = format: cell-based
S. aureus 209 P = format: cell-based
S. pneumoniae IID 552 = assay: MIC, in vitro antibacterial activity (standard strains); format: cell-based; details: Streptococcus pneumoniae, IID552; S. pneumoniae IID 552, 10^6 cells/ml, Gram +; read-out: MIC
[4] = test system: Serratia marcescens IID 618; assay: as above; format: cell-based; details: IID618; Serratia marcescens IID 618, 10^6 cells/ml, Gram -
Alcaligenes sp. = assay: MIC, in vitro antibacterial activity (clinical isolates); format: cell-based; details: No. of strains 9
E. coli ATCC 10536 = assay: MIC, in vitro antibacterial activity (standard strains); format: cell-based; details: Escherichia coli, ATCC10536
[5] = test system: Bacteroides fragilis GM 7000; assay: as above; format: cell-based; details: GM7000; Bacteroides fragilis GM 7000, 10^6 cells/ml, Gram -
B. fragilis 0558 = assay: as above; format: cell-based; details: Bacteroides fragilis; B. fragilis 0558, 10^6 cells/ml, Gram -
K. pneumoniae 1-220S = assay: as above; format: cell-based; details: Klebsiella pneumoniae, 1220S; K. pneumoniae 1-220S, 10^6 cells/ml, Gram -; read-out: MIC
Bacteroides fragilis 2 = assay: Experimental local infection with anaerobic bacteria in granuloma pouches in rats; format: in vivo; details: 25 mg/kg, p.o., pouch exudate, Mean ± S.D. (n=3)
Method: Under ether anesthesia, male Wistar rats (7 weeks old) were injected subcutaneously on the back with 20 ml of germ-free air (sterilized by membrane filtration, 0.45 µm pore size) by means of a syringe. Continuously, an inflammatory reaction was induced by injecting one ml of sterile croton oil solution (1 % in olive oil) into the formed air pouch. After 2 days, the air was removed. On the eighth day, 0.5 ml of Bacteroides fragilis 2 culture (10^6 CFU/ml) were injected into bore granuloma pouches. Each compound was administered orally or subcutaneously at 2 hours after infection. […] During experiment, intake of food and water was free. It was known that the activity of the existing quinolonecarboxylic acid compounds against obligate anaerobic bacteria was very weak. […] This property is also one of excellent characters of the present comound.

[6] = test system: Staphylococcus aureus 209 P; assay: MIC, in vitro antibacterial activity (standard strains); format: cell-based; details: 10^6 cells/ml, Gram +
P. aeruginosa IFO 12689 = assay: as above; format: cell-based; details: Pseudomonas aeruginosa, IFO12689; P. aeruginosa IFO 12689, 10^6 cells/ml, Gram -
S. pyogenes IID 692 = assay: as above; format: cell-based; details: Streptococcus pyogenes, IID692; S. pyogenes IID 692, 10^6 cells/ml, Gram +
P. vulgaris = assay: MIC, in vitro antibacterial activity (clinical isolates); format: cell-based; details: Proteus vulgaris, No. of strains 6
E. coli = assay: as above; format: cell-based; details: Escherichia coli, No. of strains 25
Method: (§1) Minimal inhibitory concentrations (MICs) were determined in accordance with the method recommended by Japan Society of Chemotherapy.

S. aureus = assay: as above; format: cell-based; details: Staphylococcus aureus, No. of strains 21
Method: as §1

S. epidermidis = assay: as above; format: cell-based; details: Staphylococcus epidermidis, No. of strains 10
[7] = test system: Bacillus subtilis PCI 219; assay: MIC, in vitro antibacterial activity (standard strains); format: cell-based; details: PCI219; Bacillus subtilis PCI 219, 10^6 cells/ml, Gram +
[8] = test system: B. thetaiotaomicron (0661); assay: as above; format: cell-based; details: Bacteroides thetaiotaomicron; B. thetaiotaomicron (0661), 10^6 cells/ml, Gram -; read-out: MIC
[9] = test system: Salmonella enteritidis IID 604; assay: as above; format: cell-based; details: Salmonella enterica
S. epidermidis IID 866 = assay: as above; format: cell-based; details: Staphylococcus epidermidis, IID866; S. epidermidis IID 866, 10^6 cells/ml, Gram +
S. pyogenes = assay: MIC, in vitro antibacterial activity (clinical isolates); format: cell-based; details: Streptococcus pyogenes; clinical isolates S. pyogenes, No. of strains 6; read-out: MIC
Bacteroides sp. = assay: as above; format: cell-based; details: No. of strains 17
[10] = E. cloacae IID 977, Conc. of Drugs 2MIC
[11] = E. cloacae IID 977, Conc. of Drugs 4MIC
[12] = S. marcescens IID 618, Conc. of Drugs 2MIC
[13] = S. marcescens IID 618, Conc. of Drugs 4MIC

SMILES | MIC (C. perfringens KYA 13123) [µg/mL] | MIC (Campylobacter jejuni) [µg/mL] | Frequency of spontaneous resistant mutants (E. cloacae IID 977; [10]) | Frequency of spontaneous resistant mutants (E. cloacae IID 977; [11]) | MIC (B. fragilis 25285) [µg/mL] | MIC [1] [µg/mL] | MIC (B. fragilis 8503) [µg/mL] | MIC (E. faecalis) [µg/mL] | MIC (N. meningitidis) [ng/mL] | MIC [3] [µg/mL] | Frequency of spontaneous resistant mutants (S. marcescens IID 618; [12]) | Frequency of spontaneous resistant mutants (S. marcescens IID 618; [13]) | Frequency of spontaneous resistant mutants (S. aureus 209 P; Conc. of Drugs 4MIC) | MIC (S. pneumoniae IID 552) [µg/mL] | MIC [4] [µg/mL] | MIC (Alcaligenes sp.) [µg/mL] | MIC (E. coli ATCC 10536) [µg/mL] | MIC [5] [µg/mL] | MIC (B. fragilis 0558) [µg/mL] | MIC (K. pneumoniae 1-220S) [µg/mL] | also measured
CC1CN(c2c(F)cc3c(=O)c(C(=O)O)cn(C4CC4)c3c2Cl)CCN1 (stereo not shown) [Ref.2, 8-Chloro-1-cyclopropyl-6-fluoro-1,4-dihydro-7-(3-methyl-1-piperazinyl)-4-oxo-3-quinolinecarboxylic acid] | 0.39 (≈ 1.03 µM) | 0.2 (≈ 0.527 µM) | 3.1 × 10^-7 | <6.7 × 10^-10 | 0.39 (≈ 1.03 µM) | 0.1 | 0.78 (≈ 2.05 µM) | 0.78 (≈ 2.05 µM) | 6 (≈ 0.0158 µM) | 0.05 (≈ 0.132 µM) | 1.0 × 10^-7 | <1.0 × 10^-9 | 5.1 × 10^-8 | 0.39 (≈ 1.03 µM) | 0.05 (≈ 0.132 µM) | 6.25 (≈ 16.5 µM) | 0.0125 (≈ 0.0329 µM) | 0.39 (≈ 1.03 µM) | 0.39 (≈ 1.03 µM) | 0.05 (≈ 0.132 µM) | MIC ([2]; Citrobacter freundii IID 976, 10^6 cells/ml, Gram -, read-out: MIC): 0.05 µg/mL (≈ 0.132 µM); Viable cells count (log) / ml (Bacteroides fragilis 2; 6 hr): 5.1 ± 0.21 (log) / ml; Viable cells count (log) / ml (Bacteroides fragilis 2; 24 hr): 4.5 ± 0.55 (log) / ml; MIC [6]: 0.1 µg/mL; MIC (P. aeruginosa IFO 12689): 1.56 µg/mL (≈ 4.11 µM); MIC (S. pyogenes IID 692): 0.78 µg/mL; MIC (P. vulgaris): 0.05 µg/mL (≈ 0.132 µM); MIC (E. coli): 0.025 µg/mL (≈ 0.0658 µM); MIC (S. aureus): 0.1 µg/mL (≈ 0.263 µM); MIC (S. epidermidis): 0.1 µg/mL (≈ 0.263 µM); MIC [7]: 0.025 µg/mL; MIC [8]: 0.78 µg/mL (≈ 2.05 µM); MIC ([9]; Salmonella enteritidis IID 604, 10^6 cells/ml, Gram -, read-out: MIC): 0.05 µg/mL (≈ 0.132 µM); MIC (S. epidermidis IID 866): 0.1 µg/mL; MIC (S. pyogenes): 0.39 µg/mL (≈ 1.03 µM); MIC (Bacteroides sp.): 0.39 µg/mL (≈ 1.03 µM)
NC1CCN(c2c(F)cc3c(=O)c(C(=O)O)cn(C4CC4)c3c2Cl)C1 (stereo not drawn) [Example 25, 7-(3-Amino-l-pyrrolidinyl)-8-chloro-l-cyclopropyl-6-fluoro-1,4-dihydro-4-oxo-3-quinolinecarboxylic acid] | 0.1 (≈ 0.273 µM) | 0.05 (≈ 0.137 µM) | 6.7 × 10^-10 | <6.7 × 10^-10 | 0.1 (≈ 0.273 µM) | 0.05 | 0.39 (≈ 1.07 µM) | 0.2 (≈ 0.547 µM) | 6 (≈ 0.0164 µM) | 0.05 (≈ 0.137 µM) | 1.5 × 10^-8 | <1.0 × 10^-9 | <2.9 × 10^-9 | 0.1 (≈ 0.273 µM) | 0.05 (≈ 0.137 µM) | 0.78 (≈ 2.13 µM) | 0.0125 (≈ 0.0342 µM) | 0.1 (≈ 0.273 µM) | 0.1 (≈ 0.273 µM) | 0.05 (≈ 0.137 µM) | MIC ([2]; Citrobacter freundii): 0.0125 µg/mL (≈ 0.0342 µM); Frequency of spontaneous resistant mutants (S. aureus 209 P; Conc. of Drugs 2MIC): 2.9 × 10^-8; Viable cells count (log) / ml (Bacteroides fragilis 2; 6 hr): 4.6 ± 0.31 (log) / ml; Viable cells count (log) / ml (Bacteroides fragilis 2; 24 hr): 4.5 ± 0.15 (log) / ml; MIC [6]: 0.05 µg/mL; MIC (P. aeruginosa IFO 12689): 0.2 µg/mL (≈ 0.547 µM); MIC (S. pyogenes IID 692): 0.1 µg/mL; MIC (P. vulgaris): 0.05 µg/mL (≈ 0.137 µM); MIC (E. coli): 0.013 µg/mL (≈ 0.0355 µM); MIC (S. aureus): 0.05 µg/mL (≈ 0.137 µM); MIC (S. epidermidis): 0.05 µg/mL (≈ 0.137 µM); MIC [7]: 0.025 µg/mL; MIC [8]: 0.2 µg/mL (≈ 0.547 µM); MIC [9]: 0.0125 µg/mL (≈ 0.0342 µM); MIC (S. epidermidis IID 866): 0.05 µg/mL; MIC (S. pyogenes): 0.1 µg/mL (≈ 0.273 µM); MIC (Bacteroides sp.): 0.1 µg/mL (≈ 0.273 µM)
